Experimental data published in US20070191442A1, “Aqueous Pharmaceutical Formulations of ER-beta Selective Ligands” (priority 2006, published 2007).

Columns and labels:
Format in all cases: physicochemical
[1] = Chemical stability of a pharmaceutical composition of Compound 1 (potency, degradation impurities by HPLC); conditions: for Potency (percent of the initial API concentration) / Impurity (MW not given) / Impurity MW 279 / Impurity MW 556 / Impurity MW 574: 15% HPBCD, pH 9.2; for Impurity (MW not given) / Impurity MW 279 / Impurity MW 556 / Impurity MW 574: HPLC
Description: As used herein, potency refers to the percent of the initial API concentration.
The potency of each composition was determined, and the concentration of impurities from degradation was measured by HPLC, as shown in Table 4.

[2] = Solubility of Compound 1 formulated with HPBCD (FIG. 2, FIG. 3)
Description: FIG. 2 depicts the water solubility of the unionized form of Compound 1 with increasing concentrations of hydroxypropyl-beta-cyclodextrin (HPBCD). FIG. 3 depicts the water solubility of the ionized form of Compound 1 at pH 9.0 and 10.3 with increasing concentrations of hydroxypropyl-beta-cyclodextrin (HPBCD).

[3] = Serial dilution study with phosphate buffered saline as diluent and blood model; precipitate observed for two minutes
Description: A serial dilution study was also undertaken to assess the risk of Compound 1 precipitating upon injection. Phosphate buffered saline (PBS) was used as the diluent and blood model. Accordingly, 10 mg/mL (at pH 9.2) and 30 mg/mL (at pH 10.5) compositions of Compound 1 were prepared by the method described in Example 1, both having 15% HPBCD. The solutions were then serially diluted with PBS.

[4] = Water solubility of Compound 1 with increasing pH (FIG. 1)
Description: FIG. 1 depicts the water solubility of Compound 1 with increasing pH. The aqueous pharmaceutical compositions of the invention include a solubilizer/complexant component, to aid in solubilizing the ERβ selective ligand. […] Accordingly, present compositions include a solubilizer/complexant component to aid in solubilization. Generally, the solubilizer/complexant component consists of one or more solubilizing and/or complexing agents known to be useful in the preparation of pharmaceutical formulations. In some embodiments, the solubilizer/complexant component consists of a single solubilizing and/or complexing agent. In some embodiments, the solubilizer/complexant component includes, but is not limited to, cosolvents such as glycerine, ethanol, propylene glycol, sorbitol and polyethylene glycol, and surfactants such as the polyoxyethylene sorbitan fatty acid esters (e.g., polysorbate 80), polyoxyethylene castor oil derivatives (e.g., cremophor EL, cremophor RH40), vitamin E TPGS (d-alpha-tocopheryl polyethylene glycol), solutol (polyethylene glycol esters of hydroxystearate), polyoxyethylene-polyoxypropylene copolymers, polyoxyethylene fatty alcohol ethers, polyethoxylated fatty acid esters, polyoxyethylene-glycerol fatty esters, polyglycolized glycerides, polyethoxylated cholesterols, polyethoxylated sterols, and polyethoxylated vegetable oils. In some embodiments, the solubilizer/complexant component includes, but is not limited to, cosolvents such as glycerine, ethanol, propylene glycol, and polyethylene glycol, and surfactants such as the polyoxyethylene sorbitan fatty acid esters, polyoxyethylene castor oil derivatives, vitamin E TPGS, and solutol. […] Examples of some preferred solubilizing and/or complexing agents include cyclodextrins (including alpha, beta and gamma cyclodextrins) and substituted cyclodextrins, for example hydroxypropyl beta-cyclodextrin and sulfobutyl ether beta-cyclodextrin, with hydroxypropyl beta-cyclodextrin being preferred. […]

N#Cc1cc(-c2ccc(O)c(F)c2)cc2ccc(O)cc12 [Compound 1, 3-(3-Fluoro-4-hydroxy-phenyl)-7-hydroxy-naphthalene-1-carbonitrile]
Potency (percent of the initial API concentration) ([1]; stored 1 mo. at 25 °C): 100.8
Potency (percent of the initial API concentration) ([1]; stored 1 mo. at 40 °C): 100.4
Impurity (MW not given) ([1]; stored 1 mo. at 40 °C): 0.06
Impurity MW 279 ([1]; stored 1 mo. at 40 °C): 0.07
Impurity MW 556 ([1]; stored 1 mo. at 40 °C): 0.33
Impurity MW 574 ([1]; stored 1 mo. at 40 °C): 0.03
Potency (percent of the initial API concentration) ([1]; stored 3 mo. at 4 °C): 99.9
Potency (percent of the initial API concentration) ([1]; stored 3 mo. at 25 °C): 98.9
Impurity (MW not given) ([1]; stored 3 mo. at 25 °C): 0.02
Impurity MW 279 ([1]; stored 3 mo. at 25 °C): 0.03
Impurity MW 556 ([1]; stored 3 mo. at 25 °C): 0.11
Potency (percent of the initial API concentration) ([1]; stored 3 mo. at 40 °C): 98.1
Impurity (MW not given) ([1]; stored 3 mo. at 40 °C): 0.12
Impurity MW 279 ([1]; stored 3 mo. at 40 °C): 0.16
Impurity MW 556 ([1]; stored 3 mo. at 40 °C): 0.62
Impurity MW 574 ([1]; stored 3 mo. at 40 °C): 0.06
Potency (percent of the initial API concentration) ([1]; stored 6 mo. at 4 °C): 98.0
Impurity MW 556 ([1]; stored 6 mo. at 4 °C): 0.06
Potency (percent of the initial API concentration) ([1]; stored 6 mo. at 25 °C): 97.7
Impurity (MW not given) ([1]; stored 6 mo. at 25 °C): 0.04
Impurity MW 279 ([1]; stored 6 mo. at 25 °C): 0.05
Impurity MW 556 ([1]; stored 6 mo. at 25 °C): 0.36
Impurity MW 574 ([1]; stored 6 mo. at 25 °C): 0.03
Potency (percent of the initial API concentration) ([1]; stored 6 mo. at 40 °C): 93.3
Impurity (MW not given) ([1]; stored 6 mo. at 40 °C): 0.3
Impurity MW 279 ([1]; stored 6 mo. at 40 °C): 0.4
Impurity MW 556 ([1]; stored 6 mo. at 40 °C): 1.57
Impurity MW 574 ([1]; stored 6 mo. at 40 °C): 0.11
molecular weight 556 impurity ([1]; comparable formulation without the HPBCD (5 mg/mL, 50 mM glycine buffer, pH 11), at three days): 0.34%
increase in solubility ([2]; 15% HPBCD at pH 9, compared with free acid form at pH 6.3-7.6 formulated with 15% HPBCD): 10 fold
increase in solubility ([2]; 15% HPBCD at pH 10.3, compared with free acid form at pH 6.3-7.6 formulated with 15% HPBCD): 30 fold
Precipitate at 2 min. ([3]; 10 mg/mL (pH 9.2) composition, 15% HPBCD, diluted with PBS to 0.009766 mg/mL, pH 7.43): none
Precipitate at 2 min. ([3]; 10 mg/mL (pH 9.2) composition, 15% HPBCD, diluted with PBS to 0.019531 mg/mL, pH 7.45): none
Precipitate at 2 min. ([3]; 10 mg/mL (pH 9.2) composition, 15% HPBCD, diluted with PBS to 0.039063 mg/mL, pH 7.47): none
Precipitate at 2 min. ([3]; 10 mg/mL (pH 9.2) composition, 15% HPBCD, diluted with PBS to 0.078125 mg/mL, pH 7.57): none
Precipitate at 2 min. ([3]; 10 mg/mL (pH 9.2) composition, 15% HPBCD, diluted with PBS to 0.15625 mg/mL, pH 7.75): none
Precipitate at 2 min. ([3]; 10 mg/mL (pH 9.2) composition, 15% HPBCD, diluted with PBS to 0.3125 mg/mL, pH 8.01): none
Precipitate at 2 min. ([3]; 10 mg/mL (pH 9.2) composition, 15% HPBCD, diluted with PBS to 0.625 mg/mL, pH 8.36): none
Precipitate at 2 min. ([3]; 10 mg/mL (pH 9.2) composition, 15% HPBCD, diluted with PBS to 1.25 mg/mL, pH 8.65): none
Precipitate at 2 min. ([3]; 10 mg/mL (pH 9.2) composition, 15% HPBCD, diluted with PBS to 2.5 mg/mL, pH 8.83): none
Precipitate at 2 min. ([3]; 10 mg/mL (pH 9.2) composition, 15% HPBCD, diluted with PBS to 5 mg/mL, pH 9.04): none
concentration of Compound 1 on dilution relative to water solubility (FIG. 4) ([3]; 10 mg/mL and 30 mg/mL solutions, 15% HPBCD, serial dilution with PBS): maintained above the water solubility for sufficient time for complete dilution in the blood stream
tendency to precipitate upon dilution ([3]; 10 mg/mL solution versus 30 mg/mL solution, both 15% HPBCD, diluted with PBS): lower tendency to precipitate upon dilution
Precipitate at 2 min. ([3]; 30 mg/mL (pH 10.5) composition, 15% HPBCD, diluted with PBS to 0.029297 mg/mL, pH 7.55): yes
Precipitate at 2 min. ([3]; 30 mg/mL (pH 10.5) composition, 15% HPBCD, diluted with PBS to 0.058594 mg/mL, pH 7.68): yes
Precipitate at 2 min. ([3]; 30 mg/mL (pH 10.5) composition, 15% HPBCD, diluted with PBS to 0.117188 mg/mL, pH 8): yes
Precipitate at 2 min. ([3]; 30 mg/mL (pH 10.5) composition, 15% HPBCD, diluted with PBS to 0.234375 mg/mL, pH 8.45): yes
Precipitate at 2 min. ([3]; 30 mg/mL (pH 10.5) composition, 15% HPBCD, diluted with PBS to 0.46875 mg/mL, pH 8.82): none
Precipitate at 2 min. ([3]; 30 mg/mL (pH 10.5) composition, 15% HPBCD, diluted with PBS to 0.9375 mg/mL, pH 9): none
Precipitate at 2 min. ([3]; 30 mg/mL (pH 10.5) composition, 15% HPBCD, diluted with PBS to 1.875 mg/mL, pH 9.32): none
Precipitate at 2 min. ([3]; 30 mg/mL (pH 10.5) composition, 15% HPBCD, diluted with PBS to 3.75 mg/mL, pH 9.6): none
Precipitate at 2 min. ([3]; 30 mg/mL (pH 10.5) composition, 15% HPBCD, diluted with PBS to 7.5 mg/mL, pH 9.9): none
Precipitate at 2 min. ([3]; 30 mg/mL (pH 10.5) composition, 15% HPBCD, diluted with PBS to 15 mg/mL, pH 10.17): none
solubility at the pH maxima considered safe for IV administration ([4]; about pH 10): poorly soluble
solubility at lower pH ([4]; lower pH): relatively insoluble
solubility in water ([4]; water): insoluble in water
